Key:
Format in all cases: in vivo
Details in all cases: after four weeks, 0=no damage 100=complete damage
Digitaria sanguinalis = assay: Post-emergence action against weeds, Example 2: greenhouse, visual scoring of damage
Experimental: (§1) The plant species listed below were sown in Jiffy pots and cultivated in a greenhouse at a day/night rhythm of 22° C./14° C. At the 2-4-leaf stage, the plants were then treated with an aqueous solution of the compounds in question at the stated dosages. After four weeks, the results were scored visually using the following scheme: 0=no damage 100=complete damage AS/ha=active substance/hectare

Polygonum convolvulus [1] = assay: Post-emergence action against weeds, Example 3: greenhouse, visual scoring of damage
Experimental: as §1

Abutilon theophrasti = assay: as above
Experimental: as §1

Polygonum convolvulus [2] = assay: Post-emergence action against weeds, Example 2: greenhouse, visual scoring of damage
Experimental: as §1

Setaria viridis = assay: as above
Experimental: as §1

**Q.** How did the “Damage DIGSA” value (Digitaria sanguinalis; 13 g of AS/ha) turn out when `Cc1ccc2c(c1)[C@H](Nc1nc(N)nc([C@@H](C)F)n1)CC2` [Compound B-22, 2-amino-4-[(1R)-6-methylindan-1-ylamino]-6-[(1R)-1-fluoroethyl]-1,3,5-triazine] was run?
**A.** 24

**Q.** What about the “Damage DIGSA” value (Digitaria sanguinalis; 25 g of AS/ha) of the same compound?
**A.** 55

**Q.** For `Cc1ccc2c(c1)[C@H](Nc1nc(N)nc([C@@H](C)F)n1)[C@@H](C)C2` [Compound B-47, 2-amino-4-[(1R,2S)-2,6-dimethylindan-1-ylamino]-6-[(1R)-1-fluoroethyl]-1,3,5-triazine], which “Damage POLCO” value (Polygonum convolvulus [1]; 13 g of AS/ha) is on record?
**A.** 0

**Q.** What about the “Damage POLCO” value (Polygonum convolvulus [1]; 25 g of AS/ha) of the same compound?
**A.** 0

**Q.** What about the “Damage ABUTH” value (Abutilon theophrasti; 13 g of AS/ha) of the same compound?
**A.** 5

**Q.** And the “Damage ABUTH” value (Abutilon theophrasti; 25 g of AS/ha)?
**A.** 15

**Q.** What about the “Damage POLCO” value (Polygonum convolvulus [2]; 13 g of AS/ha) of the same compound?
**A.** 0

**Q.** What about the “Damage POLCO” value (Polygonum convolvulus [2]; 25 g of AS/ha) of the same compound?
**A.** 0

**Q.** What does the source list for `Cc1ccc2c(c1)[C@H](Nc1nc(N)nc([C@@H](C)F)n1)[C@H](C)C2` (racemic) [Compound B-44, 2-amino-4-[(1RS,2RS)-2,6-dimethylindan-1-ylamino]-6-[(1RS)-1-fluorethyl]-1,3,5-triazine]?
**A.** Damage SETVI (Setaria viridis; 13 g of AS/ha): 3; Damage SETVI (Setaria viridis; 25 g of AS/ha): 5
